Source: patent US8481678B2, “Peptide-based tooth whitening reagents” (E I du Pont de Nemours and Company, priority 2009, dated 2013)
One block for each molecule: values may come before it. Where no end group is shown, it is not given here. The star is where a group is joined. Biotin = O=C1N[C@H]2[C@H](CS[C@H]2CCCCC(=O)*)N1

Legend:
[1] = test system: pellicle-coated bovine enamel; assay: Phage ELISA on pellicle-coated bovine enamel, candidates from brushed 8 hr pellicle, Example 17; format: binding, human; details: phage ELISA screened with 30 min in vivo pellicle; normalized to DenP3; no-phage control 0.094
Method: (§1) A total of 18 selected phage candidates were used in a phage ELISA Experiment. Purified phage lysates were used for binding to pellicle-coated bovine enamel using an anti-M13 phage antibody conjugated to horseradish-peroxidase, followed by the addition of chromogenic agent TMB, obtained from Pierce Biotechnology (Rockford, Ill.). The plates were read at A450nm.
The wells were rinsed 2 times with wash buffer consisting of PBST. The wells were filled with 1 mL of […] purified phage stock which was prepared by diluting in blocking buffer. […] The non-binding phage was removed by washing 5 times with PBST. Then, 500 μL of horseradish peroxidase/anti-M13 antibody conjugate (Amersham USA, Piscataway, N.J.), diluted 1:500 in the blocking buffer, was added and incubated for 45 min at room temperature. The conjugate solution was removed and was washed 5 times with PBST.

[2] = Phage ELISA, tooth enamel-binding assay (unpolished enamel blocks); set-up: species or system bovine; details: phage ELISA on unpolished enamel, over 10^10 pfu phage; no-phage control 0.193
Method: as §1, with “11” for “18”, “candidates (Example 3)” for “candidates”, “experiment.” for “Experiment.”, “the” for “pellicle-coated bovine”, “enamel blocks” for “enamel”, “A450 nm.” for “A450nm.”
For each phage candidate to be tested, the polished and unpolished enamel blocks were incubated for 1 h at room temperature with 200 μL of blocking buffer, consisting of 2% non-fat dry milk (Schleicher & Schuell, Inc.) in TBS. […] The tube was rinsed 6 times with wash buffer consisting of TBST-0.05%. The wells were filled with 200 μL of TBST-0.5% containing 1 mg/mL BSA and then 10 μL (over 10^10 pfu) of purified phage stock was added. The samples were incubated at room temperature for 60 min with slow shaking. The non-binding phage was removed by washing 6 times with TBST-0.5%. […] The conjugate solution was removed and was washed 6 times with TBST-0.5%. […] “BoEn P” means bovine polished enamel and BoEn means bovine enamel.

[3] = test system: pellicle coated bovine enamel; assay: Phage ELISA on pellicle-coated bovine enamel (30 min in vivo pellicle), Example 13; format: binding, human; details: 10^11 pfu, 30 min at 37° C., normalized to an internal control
Method: as §1, with “29” for “18”, “candidates from Table 14” for “candidates”, “in” for “in a”, “Experiment to determine binding affinity and coverage of each phage on pellicle substrates.” for “Experiment.”, “pellicle coated” for “pellicle-coated”
The wells were filled with 1 mL of 10^11 pfu purified phage stock which was prepared by diluting in blocking buffer. […] The non-binding phage was removed by washing 5 times with PBST. […] The conjugate solution was removed and was washed 3 times with PBST.

[4] = test system: pellicle-coated enamel substrates; details: 20 μM synthetic biotinylated peptide, 30 min at 37° C.; normalized to DenP03; three replicates; no peptide −0.001
Method: A total of 20 synthetic peptides were manufactured using sequences obtained from Table 14. Peptides were obtained from Synbiosci (Livermore, Calif.) and included an additional SSRP sequence (SEQ ID NO: 151) at the N-terminus and biotin labeled lysine at the C-terminus.
Enamel substrates were cut to approx. 7 mm squares and mounted on wax mounting for incubation in the mouth for 30 min to form a pellicle coated surface. The pellicle-coated enamel substrates were removed from the wax backing and placed in well plates with the pellicle surface exposed as in Example 1. Each pellicle-coated substrate was incubated for 1 h at room temperature (˜22° C.) with 1 mL of blocking buffer, consisting of 1 mg/mL BSA in PBST (Pierce BupH™ #28372 with 0.1% TWEEN® 20). The blocking buffer was removed by aspirating the liquid out of each well. The tube was rinsed 2 times with wash buffer consisting of PBST. The wells were filled with 500 μL of 20 μM peptide solution which was prepared by diluting in blocking buffer. The samples were incubated for 30 min with slow shaking at 37° C. The non-binding peptide was removed by washing 6 times with PBST. Then, 500 μL of horseradish peroxidase/streptavidin conjugate (Pierce #22127), diluted 1:2000 in PBST, was added and incubated for 1 h at room temperature. The conjugate solution was removed and was washed 4 times with PBST.
Each enamel substrate was removed from the well and washed again in a 15-mL test tube with 10 mL of PBST. Each enamel substrate was then mounted in a clean well plate with only the enamel surface exposed. A 1:1 solution of TMB substrate and H2O2 (200 μL), obtained from Pierce Biotechnology (Rockford, Ill.) was added to each well and the color was allowed to develop for between 10 to 20 min, typically for 15 min, at room temperature (˜22° C.). Then, 100 μL of solution from each well was transferred to a 96-well reading plate containing stop solution (100 μL of 2 M H2SO4) in each well. The A450 was measured using a microplate spectrophotometer (Molecular Devices, Sunnyvale, Calif.). […] Each sequence was tested with three replicate enamel coated pellicle substrates.

[5] = Whitening of tea-stained bovine enamel with peptide reagent and cellulose acetate-coated TiO2 (CIELAB colour); set-up: key to L* / a* / b*: CIELAB coordinates: L* lightness, a*/b* chromaticity (D65 illuminant); key to ΔE: ΔE = ((ΔL*)²+(Δa*)²+(Δb*)²)^½ vs tea-stained baseline
Method: The peptide-based reagent comprising multiple tooth-binding peptides, spacers, and cellulose acetate-binding peptide sequences was prepared as described in Example 8.
The cellulose acetate-coated titanium dioxide was prepared as described in Example 10. The peptide-based reagent described in Example 8 (SEQ ID NO:116) was used. The peptide-based reagent was diluted with 25 mM Tris-HCl buffer including 150 mM NaCl at pH 7.5 to give a final concentration of 5 μM. The cellulose acetate-coated titanium dioxide dispersion described in Example 10 was further diluted from 20% solids to 0.25% solids in 25 mM Tris-HCl buffer at pH 7.5.
Bovine Teeth (SE Dental, Baton Rouge, La.) were used as model substrate to test with the engineered peptide-based reagent designed to bind to tooth enamel (SEQ ID NO:116). The teeth were prepared by cleaning in detergent and then disinfecting in 70% Ethanol prior to use. Each clean tooth was measured for color using an X-RITE® SP64 Spectrometer to collect a reflectance spectrum and CIELAB color coordinates, L*, a* and b*. A staining solution was made with 100 mL of boiling water exposed to 1 Lipton tea bag for 5 minutes. After the solution cooled to room temperature, each tooth was allowed to incubate in the staining solution for approximately 3 days. The teeth were removed and rinsed with water and dried. Color measurement was obtained for each tooth.
The stained bovine enamel substrates were exposed to either the 5 μM solution of peptide or as a control, the buffer used to make the peptide solution. This exposure was for 30 minutes with gentle agitation in a vortex mixer. Following peptide binding, the teeth were removed and rinsed in buffer and placed in a 0.25% solution of cellulose acetate coated titanium dioxide for 30 minutes. The teeth were removed, rinsed in buffer, blotted dry and measured for color using the X-RITE® spectrometer. The teeth were placed back in the same pigment solutions for an additional 2.5 hr and removed, rinsed and measured again.
The color intensity at each step mentioned above (e.g., to determine the change in tooth whitening) was measured using a X-RITE® SP64™ Sphere Spectrophotometer (X-Rite, Inc., Grandville, Mich.), by placing the front of the bovine tooth (treated or control) sample into a sample holder and calculating L*, a* and b* parameters representing the photometer response using a standard D65 illuminant. An initial baseline values of L*, a* and b* were measured prior to peptide treatment for the tea-stained bovine samples. All measurements are the average of three individual determinations. Delta E values are calculated using equation 1 below: Delta E=((L*1−L*2)^2+(a1−a2)^2+(b1−b2)^2)^1/2 (1) where L*=the lightness variable and a* and b* are the chromaticity coordinates of CIELAB colorspace as defined by the International Commission of Illumination (CIE) (Minolta, Precise Color Communication—Color Control From Feeling to Instrumentation, Minolta Camera Co., 1996). Larger Delta E value is indicative of an increase in whiteness. In one embodiment, a larger Delta E for the treatment group (peptide-based reagent+polymer coated white colorant) versus the Delta E of the peptide-free control is used to determine the relative increase in whiteness.

[6] = after additional 2.5 hr in CA-TiO2

Molecule: GYGQYVSQQTWAHSNK [DenP115]
O.D. at 450 nm (normalized) [1]: 0.501

Molecule: MPGHQESIKVQNWNRV [DenP117]
O.D. at 450 nm (normalized) [1]: 0.433

Molecule: NQQMKLVPQHWHRAQP [DenP119]
O.D. at 450 nm (normalized) [1]: 1.051

O.D. at 450 nm [2]: 0.944
Molecule: LNDQRKPGPPTMPTHSPAVG (Tooth-binding peptide) [BoEn 5]

O.D. at 450 nm [2]: 2.38
Molecule: NTCATSPNSYTCSN (Tooth-binding peptide) [BoEn 6]

Molecule: EFYPFAEVPPEKSGIGRQVF [DenP102]
O.D. at 450 nm (normalized) [1]: 0.520

Molecule: HDHLSWWGQFDRQNLL [DenP116]
O.D. at 450 nm (normalized) [1]: 1.055

Molecule: DGYKLQTSLDWQMWNP [DenP111]
O.D. at 450 nm (normalized) [1]: 1.051

Molecule: TTYHYKNIYQESYQQRNPAV (Synthetic oral-surface binding peptide) [DenP 03]
O.D. at 450 nm (normalized) [3]: 2.495
O.D. at 450 nm (normalized) [1]: 1.000

Molecule: GVHQYSRPTVPSYLWTSGQH [DenP103]
O.D. at 450 nm (normalized) [1]: 0.879

Molecule: WHEPHQFSGENTDYSSSMGT [DenP109]
O.D. at 450 nm (normalized) [1]: 0.716

O.D. at 450 nm [2]: 1.402
Molecule: AANPHTEWDRDAFQLAMPPK (Tooth-binding peptide) [BoEn 1]

Molecule: AIEYQHSATTPWTMRTRLPP [DenP101]
O.D. at 450 nm (normalized) [1]: 0.467

Molecule: FPSKWYNHHRHITGHV [DenP112]
O.D. at 450 nm (normalized) [1]: 0.413

Molecule: GGMGALESYRQWNHLA [DenP113]
O.D. at 450 nm (normalized) [1]: 1.348

O.D. at 450 nm [2]: 3.942
Molecule: YSETPNDQKPNPHYKVSGTK (Tooth-binding peptide) [BoEn 10]

Molecule: SSRPHDPNHLTHQARTIYRNANHTK(Biotin) [DenP23-A]
O.D. at 450 nm (normalized) [4]: 0.850

Molecule: SSRPAPPTYQTASYPHNLPSKRKMK(Biotin) [DenP28-A]
O.D. at 450 nm (normalized) [4]: 0.811

Molecule: SFSWHRGDWELGHQSKTMGM [DenP106]
O.D. at 450 nm (normalized) [1]: 1.524

O.D. at 450 nm [2]: 0.568
Molecule: VGTMKQHPTTTQPPRVSATN (Tooth-binding peptide) [BoEn 9]

Molecule: SSRPSEARARTFNDHTTPMPIIK(Biotin) [DenP14-A]
O.D. at 450 nm (normalized) [4]: 0.269

Molecule: NLHSPWPSHAAHHWST [DenP118]
O.D. at 450 nm (normalized) [1]: 0.641

Molecule: THGNKHQSWTYPSEINHKNY [DenP108]
O.D. at 450 nm (normalized) [1]: 1.149

Molecule: GYQPHYVDHTIGWQPMIRPN [DenP104]
O.D. at 450 nm (normalized) [1]: 0.790

Molecule: GINKGQRPPWESWHEN [DenP114]
O.D. at 450 nm (normalized) [1]: 0.703

Molecule: SSRPVNPNWVETQALHQPPGNTK(Biotin) [DenP20-A]
O.D. at 450 nm (normalized) [4]: 0.590

Molecule: SSRPYLLPKDQTTAPQVTPIVQHKK(Biotin) [DenP5-A]
O.D. at 450 nm (normalized) [4]: 0.462

Molecule: SSRPGPQHVLMQDTHQGYAFDNK(Biotin) [DenP16-A]
O.D. at 450 nm (normalized) [4]: 0.309

Molecule: SSRPELDHDSRHYMNGLQRKVTK(Biotin) [DenP15-A]
O.D. at 450 nm (normalized) [4]: 0.460

Molecule: SSRPIYPNESMSTSNVRGPYHPK(Biotin) [DenP22-A]
O.D. at 450 nm (normalized) [4]: 0.354

Molecule: QFNQTSHSFMHGTSGYVPGK [DenP105]
O.D. at 450 nm (normalized) [1]: 0.470

O.D. at 450 nm [2]: 0.892
Molecule: SDCTAGLVPPLCAT (Tooth-binding peptide) [BoEn 7]

Molecule: SMWHDITKRYRNPSEMVSAY [DenP107]
O.D. at 450 nm (normalized) [1]: 0.726

B1: Engineered Peptide: recombinant triblock reagent: two tooth-binding peptides (SEQ 108), spacers, two cellulose acetate-binding peptides (SEQ 118), His-tag; applied with cellulose acetate-coated TiO2 (protein)
chain: PHMASMTGGQQMGSYSETPNDQKPNPHYKVSGTKGPEEAAKKEEAAKKPAYSETPNDQKPNPHYKVSGTKGSGGGGSGSGGGGSVRPNLHRKAKAKPDHKQSENRKVPFYSHGSSGGGGVRPNLHRKAKAKPDHKQSENRKVPFYSHGSSGGGHHHHHH
modifications: applied with cellulose acetate-coated TiO2; Synthetic peptide-based tooth whitening reagent
ΔE ([5]; 5 μM peptide 30 min + 0.25% CA-TiO2 30 min, versus tea-stained baseline, buffer control 3.25): 6.68
a* ([5]; 5 μM peptide 30 min + 0.25% CA-TiO2 30 min, tea-stained baseline 3.96396): 1.635
b* ([5]; 5 μM peptide 30 min + 0.25% CA-TiO2 30 min, tea-stained baseline 22.7952): 18.0418
L* ([5]; 5 μM peptide 30 min + 0.25% CA-TiO2 30 min, tea-stained baseline 67.0271): 71.1068
L* [5, 6]: 73.9558
a* [5, 6]: 1.496
b* [5, 6]: 18.0851
ΔE ([5]; after additional 2.5 hr in CA-TiO2, versus tea-stained baseline, buffer control 3.80): 8.73
